# Read-outs that look alike come from different tables or passages of the source.
# Assays:
# [1] = test system: 60 cancer cell lines (NCI 60 cancer cell line series); settings: cited from earlier work
# [2] = test system: 60 cancer cell lines (NCI 60 cancer cell line series); test: NCI-DTP in vitro cancer screen, sulforhodamine B (SRB) growth inhibition, 48 hour exposure; assay type: cell-based, human
# Method in brief: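 Potency is given as mean −log{GI50} from dose–response curves, manually binned into Low, Medium or High sensitivity. Sixty NCI-DTP tumour lines were treated 48 h with a duplicate, five-dose, ten-fold dilution series, and growth read by SRB staining of cell mass.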
substance,measurement,setting,value
Carboplatin,−Log (GI50),[1]; Breast BT-549 CL5013,3.7
same,−Log (GI50),[1]; Breast HS-578T CL5006,3.8
same,−Log (GI50),[1]; Breast MCF7(I) CL5001,3.9
same,−Log (GI50),[1]; Breast MCF7/ADRr CL5002,3.8
same,−Log (GI50),[1]; Breast MDA-MB-231 CL5005,3.6
same,−Log (GI50),[1]; Breast MDA-MB-435 CL5011,3.7
same,−Log (GI50),[1]; Breast MDA-N CL5012,3.8
same,−Log (GI50),[1]; Breast T-47D CL5014,3.6
same,−Log (GI50),[1]; CNS SF-268 CL12014,4.3
same,−Log (GI50),[1]; CNS SF-295 CL12015,4.2
same,−Log (GI50),[1]; CNS SF-539 CL12016,4.1
same,−Log (GI50),[1]; CNS SNB-19 CL12002,3.8
same,−Log (GI50),[1]; CNS SNB-75(I) CL12005,4.0
same,−Log (GI50),[1]; CNS U251(I) CL12009,4.2
same,−Log (GI50),[1]; Colon COLO-250 CL4010,3.6
same,−Log (GI50),[1]; Colon HCC-2998 CL4002,3.7
same,−Log (GI50),[1]; Colon HCT-15 CL4015,3.6
same,−Log (GI50),[1]; Colon HCT-116 CL4003,3.7
same,−Log (GI50),[1]; Colon HT29(I) CL4001,3.7
same,−Log (GI50),[1]; Colon KM12 CL4017,3.7
same,−Log (GI50),[1]; Colon SW-620 CL4009,3.8
same,−Log (GI50),[1]; Leukemia CCRF-CEM(I) CL7003,4.2
same,−Log (GI50),[1]; Leukemia HL-60(I) CL7008,4.5
same,−Log (GI50),[1]; Leukemia K562(I) CL7005,3.8
same,−Log (GI50),[1]; Leukemia MOLT-4 CL7006,4.1
same,−Log (GI50),[1]; Leukemia RPMI-8226(I) CL7010,3.8
same,−Log (GI50),[1]; Leukemia SR CL7019,4.1
same,−Log (GI50),[1]; Melanoma LOX IMVI CL10001,4.2
same,−Log (GI50),[1]; Melanoma M14 CL10014,4.0
same,−Log (GI50),[1]; Melanoma MALME-3M CL10002,4.1
same,−Log (GI50),[1]; Melanoma SK-MEL-2 CL10005,3.8
same,−Log (GI50),[1]; Melanoma SK-MEL-5 CL10007,4.0
same,−Log (GI50),[1]; Melanoma SK-MEL-28 CL10008,3.8
same,−Log (GI50),[1]; Melanoma UACC-62 CL10020,4.4
same,−Log (GI50),[1]; Melanoma UACC-257 CL10021,3.9
same,−Log (GI50),[1]; NSCLC A549/ATCC CL1004,4.0
same,−Log (GI50),[1]; NSCLC EKVX CL1008,3.7
same,−Log (GI50),[1]; NSCLC HOP-62 CL1026,3.9
same,−Log (GI50),[1]; NSCLC HOP-92 CL1029,4.0
same,−Log (GI50),[1]; NSCLC NCI-H23(I) CL1001,4.3
same,−Log (GI50),[1]; NSCLC NCI-H226 CL1013,3.9
same,−Log (GI50),[1]; NSCLC NCI-H332M CL1017,3.7
same,−Log (GI50),[1]; NSCLC NCI-H460 CL1021,4.5
same,−Log (GI50),[1]; NSCLC NCI-H522 CL1003,4.3
same,−Log (GI50),[1]; Ovarian IGROV1 CL6010,4.3
same,−Log (GI50),[1]; Ovarian OVCAR-3 CL6001,4.2
same,−Log (GI50),[1]; Ovarian OVCAR-4 CL6002,4.1
same,−Log (GI50),[1]; Ovarian OVCAR-5 CL6003,3.6
same,−Log (GI50),[1]; Ovarian OVCAR-8 CL6005,3.7
same,−Log (GI50),[1]; Ovarian SK-OV-3 CL6011,3.7
same,−Log (GI50),[1]; Prostate DU-145 CL11003,3.9
same,−Log (GI50),[1]; Prostate PC-3(I) CL11001,3.6
same,−Log (GI50),[1]; Renal 786-0 CL9018,4.0
same,−Log (GI50),[1]; Renal A498 CL9013,3.7
same,−Log (GI50),[1]; Renal ACHN CL9023,4.1
same,−Log (GI50),[1]; Renal CAKI-1 CL9015,4.1
same,−Log (GI50),[1]; Renal RXF-393 CL9016,4.2
same,−Log (GI50),[1]; Renal SN12C CL9008,3.8
same,−Log (GI50),[1]; Renal TK10 CL9024,3.7
same,−Log (GI50),[1]; Renal UO-31 CL9004,3.8
same,"classification of cell line as Low(1), Medium(2), High(3) sensitivity to compound",[2]; Breast BT-549 CL5013,2
same,"classification of cell line as Low(1), Medium(2), High(3) sensitivity to compound",[2]; Breast HS-578T CL5006,2
same,"classification of cell line as Low(1), Medium(2), High(3) sensitivity to compound",[2]; Breast MCF7(I) CL5001,2
same,"classification of cell line as Low(1), Medium(2), High(3) sensitivity to compound",[2]; Breast MCF7/ADRr CL5002,2
same,"classification of cell line as Low(1), Medium(2), High(3) sensitivity to compound",[2]; Breast MDA-MB-231 CL5005,1
same,"classification of cell line as Low(1), Medium(2), High(3) sensitivity to compound",[2]; Breast MDA-MB-435 CL5011,1
same,"classification of cell line as Low(1), Medium(2), High(3) sensitivity to compound",[2]; Breast MDA-N CL5012,2
same,"classification of cell line as Low(1), Medium(2), High(3) sensitivity to compound",[2]; Breast T-47D CL5014,1
same,"classification of cell line as Low(1), Medium(2), High(3) sensitivity to compound",[2]; CNS SF-268 CL12014,3
same,"classification of cell line as Low(1), Medium(2), High(3) sensitivity to compound",[2]; CNS SF-295 CL12015,3
same,"classification of cell line as Low(1), Medium(2), High(3) sensitivity to compound",[2]; CNS SF-539 CL12016,2
same,"classification of cell line as Low(1), Medium(2), High(3) sensitivity to compound",[2]; CNS SNB-19 CL12002,2
same,"classification of cell line as Low(1), Medium(2), High(3) sensitivity to compound",[2]; CNS SNB-75(I) CL12005,2
same,"classification of cell line as Low(1), Medium(2), High(3) sensitivity to compound",[2]; CNS U251(I) CL12009,2
same,"classification of cell line as Low(1), Medium(2), High(3) sensitivity to compound",[2]; Colon COLO-250 CL4010,1
same,"classification of cell line as Low(1), Medium(2), High(3) sensitivity to compound",[2]; Colon HCC-2998 CL4002,1
same,"classification of cell line as Low(1), Medium(2), High(3) sensitivity to compound",[2]; Colon HCT-15 CL4015,1
same,"classification of cell line as Low(1), Medium(2), High(3) sensitivity to compound",[2]; Colon HCT-116 CL4003,2
same,"classification of cell line as Low(1), Medium(2), High(3) sensitivity to compound",[2]; Colon HT29(I) CL4001,1
same,"classification of cell line as Low(1), Medium(2), High(3) sensitivity to compound",[2]; Colon KM12 CL4017,1
same,"classification of cell line as Low(1), Medium(2), High(3) sensitivity to compound",[2]; Colon SW-620 CL4009,2
same,"classification of cell line as Low(1), Medium(2), High(3) sensitivity to compound",[2]; Leukemia CCRF-CEM(I) CL7003,2
same,"classification of cell line as Low(1), Medium(2), High(3) sensitivity to compound",[2]; Leukemia HL-60(I) CL7008,3
same,"classification of cell line as Low(1), Medium(2), High(3) sensitivity to compound",[2]; Leukemia K562(I) CL7005,2
same,"classification of cell line as Low(1), Medium(2), High(3) sensitivity to compound",[2]; Leukemia MOLT-4 CL7006,2
same,"classification of cell line as Low(1), Medium(2), High(3) sensitivity to compound",[2]; Leukemia RPMI-8226(I) CL7010,2
same,"classification of cell line as Low(1), Medium(2), High(3) sensitivity to compound",[2]; Leukemia SR CL7019,2
same,"classification of cell line as Low(1), Medium(2), High(3) sensitivity to compound",[2]; Melanoma LOX IMVI CL10001,2
same,"classification of cell line as Low(1), Medium(2), High(3) sensitivity to compound",[2]; Melanoma M14 CL10014,2
same,"classification of cell line as Low(1), Medium(2), High(3) sensitivity to compound",[2]; Melanoma MALME-3M CL10002,2
same,"classification of cell line as Low(1), Medium(2), High(3) sensitivity to compound",[2]; Melanoma SK-MEL-2 CL10005,2
same,"classification of cell line as Low(1), Medium(2), High(3) sensitivity to compound",[2]; Melanoma SK-MEL-28 CL10008,2
same,sensitivity classification Low(1)/Medium(2)/High(3),[2]; NSCLC NCI-H23(I) CL1001,3
same,sensitivity classification Low(1)/Medium(2)/High(3),[2]; NSCLC NCI-H332M CL1017,1
same,sensitivity classification Low(1)/Medium(2)/High(3),[2]; NSCLC NCI-H460 CL1021,3
same,sensitivity classification Low(1)/Medium(2)/High(3),[2]; NSCLC NCI-H522 CL1003,3
same,sensitivity classification Low(1)/Medium(2)/High(3),[2]; Ovarian IGROV1 CL6010,3
same,sensitivity classification Low(1)/Medium(2)/High(3),[2]; Ovarian OVCAR-3 CL6001,2
same,sensitivity classification Low(1)/Medium(2)/High(3),[2]; Ovarian OVCAR-4 CL6002,2
same,sensitivity classification Low(1)/Medium(2)/High(3),[2]; Ovarian OVCAR-5 CL6003,1
same,sensitivity classification Low(1)/Medium(2)/High(3),[2]; Ovarian OVCAR-8 CL6005,2
same,sensitivity classification Low(1)/Medium(2)/High(3),[2]; Ovarian SK-OV-3 CL6011,2
same,sensitivity classification Low(1)/Medium(2)/High(3),[2]; Prostate DU-145 CL11003,2
same,sensitivity classification Low(1)/Medium(2)/High(3),[2]; Prostate PC-3(I) CL11001,1
same,sensitivity classification Low(1)/Medium(2)/High(3),[2]; Renal 786-0 CL9018,2
same,sensitivity classification Low(1)/Medium(2)/High(3),[2]; Renal A498 CL9013,1
same,sensitivity classification Low(1)/Medium(2)/High(3),[2]; Renal ACHN CL9023,2
same,sensitivity classification Low(1)/Medium(2)/High(3),[2]; Renal CAKI-1 CL9015,2
same,sensitivity classification Low(1)/Medium(2)/High(3),[2]; Renal RXF-393 CL9016,2
same,sensitivity classification Low(1)/Medium(2)/High(3),[2]; Renal SN12C CL9008,2
same,sensitivity classification Low(1)/Medium(2)/High(3),[2]; Renal TK10 CL9024,1
same,sensitivity classification Low(1)/Medium(2)/High(3),[2]; Renal UO-31 CL9004,2

# Source: patent US20030129629A1, “Methods and compositions for the identification, assessment, prevention, and therapy of human cancers” (Millennium Pharmaceuticals, Inc., priority 2000, published 2003)
